SMILES strings stand for the structures. A value given as a limit tells only on which side of the number the result lay.

As a reminder, the Kd is the equilibrium constant for the complex coming apart. Higher therefore signals a looser complex.

For the test, the target named is CRBN truncate (318-426) (Homo sapiens (Human), UniProt Q96SW2). The test can be described thus: Measurement of molecular interactions using surface plasmon resonance (SPR), Biacore T200. It is filed as binding. The following applies: 25° C., immobilized CRBN truncate, upper limit of measurement 200 μM. The method in brief: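 Compound injections used 60 s association and 120 s dissociation in HEPES pH 7.5 buffer (150 mM NaCl, 1 mM TCEP, 0.005% Tween 20, 2% DMSO). The ligand was CRBN truncate 318-426 bearing a C-terminal Avi-tag, immobilised via streptavidin on an SA sensor chip.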
Sequence of CRBN truncate (318-426) (Q96SW2 318-426): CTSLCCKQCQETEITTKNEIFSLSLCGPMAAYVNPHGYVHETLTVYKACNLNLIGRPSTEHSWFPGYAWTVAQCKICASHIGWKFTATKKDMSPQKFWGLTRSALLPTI
`Cc1sc2c(c1C)C(c1ccc(Cl)cc1)=N[C@@H](CC(=O)NCCCCCCc1cccc3c(C(=O)N4CCC5(CCCC(=O)NC5=O)C4)cccc13)c1nnc(C)n1-2` (stereo partly drawn) [Example 324, 2-[(9S)-7-(4-chlorophenyl)-4,5,13-trimethyl-3-thia-1,8,11,12-tetraazatricyclo[8.3.0.02,6]trideca-2(6),4,7,10,12-pentaen-9-yl]-N-[6-[5-(6,8-dioxo-2,7-diazaspiro[4.6]undecane-2-carbonyl)naphthalen-1-yl]hexyl]acetamide] yielded a Kd of under 50 µM.
The result for `Cc1sc2c(c1C)C(c1ccc(Cl)cc1)=N[C@@H](CC(=O)NCCCCCCn1ccc3c(C(=O)N4CCC5(CCCC(=O)NC5=O)CC4)cccc31)c1nnc(C)n1-2` [Example 326, 2-[(9S)-7-(4-chlorophenyl)-4,5,13-trimethyl-3-thia-1,8,11,12-tetraazatricyclo[8.3.0.02,6]trideca-2(6),4,7,10,12-pentaen-9-yl]-N-[6-[4-(7,9-dioxo-3,8-diazaspiro[5.6]undecane-3-carbonyl)indol-1-yl]hexyl]acetamide] reads under 50 µM; that for `Cc1sc2c(c1C)C(c1ccc(Cl)cc1)=N[C@@H](CC(=O)NCCCCCCc1ccc(C(=O)N3CCN(C4CCCC(=O)NC4=O)C(=O)C3)cc1Cl)c1nnc(C)n1-2` (stereo partly drawn) [Example 327, N-[6-[2-chloro-4-[4-(2,7-dioxoazepan-3-yl)-3-oxopiperazine-1-carbonyl]phenyl]hexyl]-2-[(9S)-7-(4-chlorophenyl)-4,5,13-trimethyl-3-thia-1,8,11,12-tetraazatricyclo[8.3.0.02,6]trideca-2(6),4,7,10,12-pentaen-9-yl]acetamide], under 50 µM; that for `Cc1sc2c(c1C)C(c1ccc(Cl)cc1)=N[C@@H](CC(=O)NCCCCCCCCNC(=O)c1cc3c(N4CCC5(CCCC(=O)NC5=O)C4)ncnc3n1C)c1nnc(C)n1-2` (stereo partly drawn) [Example 328, N-[8-[[2-[(9S)-7-(4-Chlorophenyl)-4,5,13-trimethyl-3-thia-1,8,11,12-tetraazatricyclo[8.3.0.02,6]trideca-2(6),4,7,10,12-pentaen-9-yl]acetyl]amino]octyl]-4-(6,8-dioxo-2,7-diazaspiro[4.6]undecan-2-yl)-7-methylpyrrolo[2,3-d]pyrimidine-6-carboxamide], under 50 µM.
As for `Cc1sc2c(c1C)C(c1ccc(Cl)cc1)=N[C@@H](CC(=O)NCCCCCCCCNC(=O)c1ccc3nc(N4CCC5(CCCC(=O)NC5=O)C4)sc3c1)c1nnc(C)n1-2` (stereo partly drawn) [Example 329, N-[8-[[2-[(9S)-7-(4-chlorophenyl)-4,5,13-trimethyl-3-thia-1,8,11,12-tetraazatricyclo[8.3.0.02,6]trideca-2(6),4,7,10,12-pentaen-9-yl]acetyl]amino]octyl]-2-(6,8-dioxo-2,7-diazaspiro[4.6]undecan-2-yl)-1,3-benzothiazole-6-carboxamide], the Kd is under 50 µM.
The result for `Cc1sc2c(c1C)C(c1ccc(Cl)cc1)=N[C@@H](CC(=O)NCCCCCCCCNC(=O)c1ccc(N3CC4(CC(=O)N(C5CCC(=O)NC5=O)C4=O)C3)nc1)c1nnc(C)n1-2` (stereo partly drawn) [Example 330, N-[8-[[2-[(9S)-7-(4-chlorophenyl)-4,5,13-trimethyl-3-thia-1,8,11,12-tetraazatricyclo[8.3.0.02,6]trideca-2(6),4,7,10,12-pentaen-9-yl]acetyl]amino]octyl]-6-[6-(2,6-dioxopiperidin-3-yl)-5,7-dioxo-2,6-diazaspiro[3.4]octan-2-yl]pyridine-3-carboxamide] reads under 50 µM.
Compound `Cc1sc2c(c1C)C(c1ccc(Cl)cc1)=N[C@@H](CC(=O)NCCCCCCCCNC(=O)CN1CC3(CC(=O)N(C4CCC(=O)NC4=O)C3=O)C1)c1nnc(C)n1-2` (stereo partly drawn) [Example 331, 2-[(9S)-7-(4-chlorophenyl)-4,5,13-trimethyl-3-thia-1,8,11,12-tetraazatricyclo[8.3.0.02,6]trideca-2(6),4,7,10,12-pentaen-9-yl]-N-[8-[[2-[6-(2,6-dioxopiperidin-3-yl)-5,7-dioxo-2,6-diazaspiro[3.4]octan-2-yl]acetyl]amino]octyl]acetamide] displayed a Kd of under 50 µM.
For `Cc1sc2c(c1C)C(c1ccc(Cl)cc1)=N[C@@H](CC(=O)NCCCCCCCCNC(=O)Cn1c(=O)n(C3CCCC(=O)NC3=O)c3ccccc31)c1nnc(C)n1-2` (stereo partly drawn) [Example 332, 2-[(9S)-7-(4-chlorophenyl)-4,5,13-trimethyl-3-thia-1,8,11,12-tetraazatricyclo[8.3.0.02,6]trideca-2(6),4,7,10,12-pentaen-9-yl]-N-[8-[[2-[3-(2,7-dioxoazepan-3-yl)-2-oxobenzimidazol-1-yl]acetyl]amino]octyl]acetamide] the value was under 50 µM; for `Cc1sc2c(c1C)C(c1ccc(Cl)cc1)=N[C@@H](CC(=O)NCCCCCCCCNC(=O)CCc1cccc3c1n(C)c(=O)n3C1CCCC(=O)NC1=O)c1nnc(C)n1-2` (stereo partly drawn) [Example 333, N-[8-[[2-[(9S)-7-(4-chlorophenyl)-4,5,13-trimethyl-3-thia-1,8,11,12-tetraazatricyclo[8.3.0.02,6]trideca-2(6),4,7,10,12-pentaen-9-yl]acetyl]amino]octyl]-3-[1-(2,7-dioxoazepan-3-yl)-3-methyl-2-oxobenzimidazol-4-yl]propanamide], under 50 µM.
`Cc1sc2c(c1C)C(c1ccc(Cl)cc1)=N[C@@H](CC(=O)NCCCCCCCCNC(=O)CCc1nn(C3CCCC(=O)NC3=O)c3ccccc13)c1nnc(C)n1-2` (stereo partly drawn) [Example 334, N-[8-[[2-[(9S)-7-(4-chlorophenyl)-4,5,13-trimethyl-3-thia-1,8,11,12-tetraazatricyclo[8.3.0.02,6]trideca-2(6),4,7,10,12-pentaen-9-yl]acetyl]amino]octyl]-3-[1-(2,7-dioxoazepan-3-yl)indazol-3-yl]propanamide] gave a Kd of under 50 µM.
The result for `Cc1sc2c(c1C)C(c1ccc(Cl)cc1)=N[C@@H](CC(=O)NCCCCCCCCNC(=O)c1ccc(N3CCC4(CCCC(=O)NC4=O)CC3=O)nc1)c1nnc(C)n1-2` (stereo partly drawn) [Example 335, N-[8-[[2-[(9S)-7-(4-chlorophenyl)-4,5,13-trimethyl-3-thia-1,8,11,12-tetraazatricyclo[8.3.0.02,6]trideca-2(6),4,7,10,12-pentaen-9-yl]acetyl]amino]octyl]-6-(4,7,9-trioxo-3,8-diazaspiro[5.6]dodecan-3-yl)pyridine-3-carboxamide] reads at least 100 µM.
For `Cc1sc2c(c1C)C(c1ccc(Cl)cc1)=N[C@@H](CC(=O)NCCCCCCCCNC(=O)CCc1ccc(-c3nn(C4CCCC(=O)NC4=O)c(=O)n3C)cc1)c1nnc(C)n1-2` (stereo partly drawn) [Example 336, N-[8-[[2-[(9S)-7-(4-chlorophenyl)-4,5,13-trimethyl-3-thia-1,8,11,12-tetraazatricyclo[8.3.0.02,6]trideca-2(6),4,7,10,12-pentaen-9-yl]acetyl]amino]octyl]-3-[4-[1-(2,7-dioxoazepan-3-yl)-4-methyl-5-oxo-1,2,4-triazol-3-yl]phenyl]propanamide] the value was under 50 µM; for `Cc1sc2c(c1C)C(c1ccc(Cl)cc1)=N[C@@H](CC(=O)NCCCCCCCCNC(=O)c1ccc3nc(N4CC5(CC(=O)N(C6CCC(=O)NC6=O)C5=O)C4)sc3c1)c1nnc(C)n1-2` (stereo partly drawn) [Example 337, N-[8-[[2-[(9S)-7-(4-chlorophenyl)-4,5,13-trimethyl-3-thia-1,8,11,12-tetraazatricyclo[8.3.0.02,6]trideca-2(6),4,7,10,12-pentaen-9-yl]acetyl]amino]octyl]-2-[6-(2,6-dioxopiperidin-3-yl)-5,7-dioxo-2,6-diazaspiro[3.4]octan-2-yl]-1,3-benzothiazole-6-carboxamide], under 50 µM.

For the origin of these results see patent US20250388593A1 (MITSUBISHI TANABE PHARMA CORPORATION, priority 2023, published 2025).
